Values joined by “and” are separate entries in the source; they are usually repeats but may differ in a detail not shown here. Identical values can stand only once. Each block holds one compound with its values, some of them ahead of it.
Columns and labels:
beta-tubulin = assay: Skin biopsy immunohistochemistry, tubulin expression; format: in vivo, human; details: skin biopsies, oral tivantinib for two weeks (with bevacizumab), C1D15
p-Tyr1234/5-Met = p-Tyr1234/5-Met (Homo sapiens, UniProt P08581); assay: Skin biopsy immunohistochemistry, p-MET expression; format: in vivo; details: skin biopsies following tivantinib (with bevacizumab), C1D15
Met = Met (Homo sapiens, UniProt P08581); assay: Skin biopsy immunohistochemistry, total MET expression; format: in vivo; details: skin biopsies after tivantinib treatment
β-tubulin = assay: Total β-tubulin expression in patient PBMCs by immunoblot; format: in vivo, human; details: following tivantinib treatment, data not shown
[1] = tested on: human RKO colon cancer cells; assay: Immunoblot of α- and β-tubulin expression in RKO cells; format: cell-based; details: supplemental Fig. 3A
tubulin = assay: Tubulin polymerization assay; format: biochemical; details: supplemental Fig. 3B
bFGF = assay: Plasma bFGF level; format: in vivo, human
PlGF = assay: Plasma placental growth factor level; format: in vivo, human
HGF = assay: Plasma HGF level; format: in vivo, human
soluble VEGFR1 (sVEGFR1) = assay: Plasma soluble VEGFR1 level; format: in vivo, human
VEGF-A = assay: Plasma VEGF-A level; format: in vivo, human
[2] = human, in vivo, 1 day
[3] = day 5, previously reported; cited from earlier work
CYP3A4 = details: at 50 µM (~ 18 µg/mL); ArQule data on file; cited from earlier work
[4] = Plasma pharmacokinetics of tivantinib and metabolites; details: for Cl/F: first dose, based on AUC0–inf; for half-life: t½
[5] = addition of tivantinib to bevacizumab

Sequence of p-Tyr1234/5-Met (P08581 25-1390): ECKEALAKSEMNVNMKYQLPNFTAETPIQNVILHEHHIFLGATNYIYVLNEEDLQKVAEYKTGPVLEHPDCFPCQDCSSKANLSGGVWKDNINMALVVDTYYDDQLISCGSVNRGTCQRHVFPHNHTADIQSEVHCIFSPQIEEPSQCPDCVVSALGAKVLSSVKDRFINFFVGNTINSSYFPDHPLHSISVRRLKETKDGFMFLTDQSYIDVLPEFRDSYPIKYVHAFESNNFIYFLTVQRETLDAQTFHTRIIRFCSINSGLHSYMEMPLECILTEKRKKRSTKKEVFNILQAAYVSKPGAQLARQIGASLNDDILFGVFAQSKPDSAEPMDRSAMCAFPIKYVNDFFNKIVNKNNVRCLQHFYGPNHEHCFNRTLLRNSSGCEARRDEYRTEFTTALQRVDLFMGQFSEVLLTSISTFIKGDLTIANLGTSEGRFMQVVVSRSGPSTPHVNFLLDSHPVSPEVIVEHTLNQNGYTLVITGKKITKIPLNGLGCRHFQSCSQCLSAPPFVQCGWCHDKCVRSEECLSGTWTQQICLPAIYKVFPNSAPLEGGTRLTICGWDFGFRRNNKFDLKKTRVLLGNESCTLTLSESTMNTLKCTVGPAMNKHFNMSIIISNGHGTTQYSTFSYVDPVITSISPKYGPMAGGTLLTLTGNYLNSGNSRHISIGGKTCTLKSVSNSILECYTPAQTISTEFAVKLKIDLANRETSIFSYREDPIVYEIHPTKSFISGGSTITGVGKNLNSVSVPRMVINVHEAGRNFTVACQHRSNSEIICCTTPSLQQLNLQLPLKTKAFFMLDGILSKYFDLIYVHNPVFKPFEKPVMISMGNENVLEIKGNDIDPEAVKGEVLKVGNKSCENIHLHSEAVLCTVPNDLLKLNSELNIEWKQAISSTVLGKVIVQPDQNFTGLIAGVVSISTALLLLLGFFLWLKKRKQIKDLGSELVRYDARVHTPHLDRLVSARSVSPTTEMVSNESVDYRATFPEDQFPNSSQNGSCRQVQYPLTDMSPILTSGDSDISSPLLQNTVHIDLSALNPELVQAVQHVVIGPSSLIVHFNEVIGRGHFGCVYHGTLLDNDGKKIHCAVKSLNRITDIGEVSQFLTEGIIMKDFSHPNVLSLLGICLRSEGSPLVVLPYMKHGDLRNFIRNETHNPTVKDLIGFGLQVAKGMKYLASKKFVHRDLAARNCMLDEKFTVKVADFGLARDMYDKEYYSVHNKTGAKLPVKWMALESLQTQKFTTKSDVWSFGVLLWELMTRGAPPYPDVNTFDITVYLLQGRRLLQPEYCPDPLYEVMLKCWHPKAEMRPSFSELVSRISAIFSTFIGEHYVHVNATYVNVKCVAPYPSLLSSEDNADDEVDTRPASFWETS
Sequence of Met (P08581 25-1390): as above

- Patients with reduced p-MET expression in skin (p-Tyr1234/5-Met): 7/11 and 7 of 11
- Total MET expression in the cytoplasm (skin) (Met): remained unchanged
- Dose-normalised exposure on day 1 [2]: 5.82 ng/mL/mg
- t½ ([4]; Total (N = 11), all dose levels, day 1, plasma, mean (SD)): 5.1 (2.4) h
- Cl/F ([4]; Total (N = 11), mean (SD)): 24.9 L/h
- AUC(0-t) ([4]; human, plasma, oral, AUC0–8, tivantinib 360/240 mg AM/PM (N = 1), day 1, plasma): 5020 ng·h/mL
- Tmax ([4]; human, plasma, oral, Tmax, tivantinib 120/120 mg AM/PM (N = 1), day 1, plasma): 2.5 h
- Tmax ([4]; human, plasma, oral, Tmax, tivantinib 360/240 mg AM/PM (N = 1), day 1, plasma): 3 h
- half-life ([4]; human, plasma, oral, tivantinib 120/120 mg AM/PM (N = 1), day 1, plasma): 8.2 h
- half-life ([4]; human, plasma, oral, tivantinib 360/240 mg AM/PM (N = 1), day 1, plasma): 9.2 h
- Tmax ([4]; human, plasma, po, Time of peak plasma concentration, day 1, all 11 patients): ~3 h
- AUC0–8 ([4]; tivantinib 120/120 mg AM/PM (N = 1), day 1, plasma): 5570 ng·h/mL
- Cl/F ([4]; tivantinib 120/120 mg AM/PM (N = 1)): 9.43 L/h
- Cl/F ([4]; tivantinib 360/240 mg AM/PM (N = 1)): 25.8 L/h
- Time for accumulation to reach steady-state ([4]; twice daily dosing): ≤ 24 h
Compound: O=C1NC(=O)[C@@H](c2cn3c4c(cccc24)CCC3)[C@@H]1c1c[nH]c2ccccc12 [tivantinib]
- Patients with substantial reductions in tubulin expression in skin (beta-tubulin): 4/11 and 4 of 11
- Tubulin expression in patient PBMCs (β-tubulin): No significant differences
- α- and β-tubulin protein expression [1]: loss of both α- and β-tubulin protein expression
- Tubulin polymerization (tubulin): inhibited tubulin polymerization, but not to the same extent as vincristine
- Plasma bFGF concentrations (bFGF; day 15, following 14 days of tivantinib added to bevacizumab, p = 0.047): returned to baseline in most patients
- Plasma PIGF concentrations (PlGF; [5]): did not alter PIGF concentrations
- Plasma HGF concentrations (HGF; addition of tivantinib, in the six patients with increase after bevacizumab): decreased in these same patients
- Plasma sVEGFR1 concentrations (soluble VEGFR1 (sVEGFR1); following tivantinib administration): increased in four patients
- Plasma VEGF-A concentrations (VEGF-A; [5]): did not alter VEGF-A concentrations
- Steady-state clearance [3]: 11.8 L/h
- Time-dependent inhibition of CYP3A4 (CYP3A4): exhibits time-dependent inhibition

Compound: CC[C@]1(O)C[C@H]2CN(CCc3c([nH]c4ccccc34)[C@@](C(=O)OC)(c3cc4c(cc3OC)N(C=O)[C@H]3[C@@](O)(C(=O)OC)[C@H](OC(C)=O)[C@]5(CC)C=CCN6CC[C@]43[C@@H]65)C2)C1 [vincristine, reference compound]
- α- and β-tubulin protein expression [1]: loss of both α- and β-tubulin protein expression

Compound: bevacizumab [reference compound]
- Patients with increased plasma bFGF (bFGF; after bevacizumab-only lead-in (day 1 vs day − 15), p = 0.008): 8 of 11
- Average increase of plasma PIGF (PlGF; after bevacizumab treatment): 60%
- Patients with increased plasma PIGF (PlGF; after bevacizumab treatment, p = 0.005): 10 of 11
- Plasma HGF concentrations (HGF; after bevacizumab treatment): increased in six patients
- Plasma sVEGFR1 concentrations (soluble VEGFR1 (sVEGFR1); after bevacizumab administration, five patients with elevated baseline): decreased
- Plasma VEGF-A (VEGF-A; after bevacizumab treatment): decreased expression of VEGF-A in two patients (#01; #07) and increases in eight patients

Source: article PMC8628145 (Cancer chemotherapy and pharmacology, 2021)
